Results taken from patent US20160168130A1, “HETEROARYL SUBSTITUTED PYRAZOLES” (BAYER PHARMA AKTIENGESELLSCHAFT, priority 2013, published 2016).

Experiments:
[1] = molecular target: T1, catalytic domain of human Bub1 (amino acids 704-1085) (Homo sapiens, UniProt O43683); assay: Bub1 kinase assay (TR-FRET); type: biochemical; settings: 10 μM ATP, 1 μM peptide substrate, median, read-out: Biological Assay 1: Bub1 kinase assay median IC50
T1 construct: catalytic domain of human Bub1 (amino acids 704-1085); His6 (N); made in house; host or cells: Hi5 insect cells
Source text: Bub1-inhibitory activities of compounds described in the present invention were quantified using a time-resolved fluorescence energy transfer (TR-FRET) kinase assay which measures phosphorylation of the synthetic peptide Biotin-Ahx-VLLPKKSFAEPG (C-terminus in amide form), purchased from e.g. Biosyntan (Berlin, Germany) by the (recombinant) catalytic domain of human Bub1 (amino acids 704-1085), expressed in Hi5 insect cells with an N-terminal His6-tag and purified by affinity-(Ni-NTA) and size exclusion chromatography.
In a typical assay 11 different concentrations of each compound (0.1 nM, 0.33 nM, 1.1 nM, 3.8 nM, 13 nM, 44 nM, 0.15 μM, 0.51 μM, 1.7 μM, 5.9 μM and 20 μM) were tested in duplicate within the same microtiter plate. To this end, 100-fold concentrated compound solutions (in DMSO) were previously prepared by serial dilution (1:3.4) of 2 mM stocks in a clear low volume 384-well source microtiter plate (Greiner Bio-One, Frickenhausen, Germany), from which 50 nL of compounds were transferred into a black low volume test microtiter plate from the same supplier. Subsequently, 2 μL of Bub1 (the final concentration of Bub1 was adjusted depending on the activity of the enzyme lot in order to be within the linear dynamic range of the assay: typically ˜200 ng/mL were used) in aqueous assay buffer [50 mM Tris/HCl pH 7.5, 10 mM magnesium chloride (MgCl2), 200 mM potassium chloride (KCl), 1.0 mM dithiothreitol (DTT), 0.1 mM sodium ortho-vanadate, 1% (v/v) glycerol, 0.01% (w/v) bovine serum albumine (BSA), 0.005% (v/v) Trition X-100 (Sigma), 1× Complete EDTA-free protease inhibitor mixture (Roche)] were added to the compounds in the test plate and the mixture was incubated for 15 min at 22° C. to allow pre-equilibration of the putative enzyme-inhibitor complexes before the start of the kinase reaction, which was initiated by the addition of 3 μL 1.67-fold concentrated solution (in assay buffer) of adenosine-tri-phosphate (ATP, 10 μM final concentration) and peptide substrate (1 μM final concentration). The resulting mixture (5 μL final volume) was incubated at 22° C. during 60 min., and the reaction was stopped by the addition of 5 μL of an aqueous EDTA-solution (50 mM EDTA, in 100 mM HEPES pH 7.5 and 0.2% (w/v) bovine serum albumin) which also contained the TR-FRET detection reagents (0.2 μM streptavidin-XL665 [Cisbio Bioassays, Codolet, France] and 1 nM anti-phosho-Serine antibody [Merck Millipore, cat. #35-001] and 0.4 nM LANCE EU-W1024 labeled anti-mouse IgG antibody [Perkin-Elmer, product no. AD0077, alternatively a Terbium-cryptate-labeled anti-mouse IgG antibody from Cisbio Bioassays can be used]). The stopped reaction mixture was further incubated 1 h at 22° C. in order to allow the formation of complexes between peptides and detection reagents. Subsequently, the amount of product was evaluated by measurement of the resonance energy transfer from the Eu-chelate-antibody complex recognizing the Phosphoserine residue to the streptavidin-XL665 bound to the biotin moiety of the peptide. To this end, the fluorescence emissions at 620 nm and 665 nm after excitation at 330-350 nm were measured in a TR-FRET plate reader, e.g. a Rubystar or Pherastar (both from BMG Labtechnologies, Offenburg, Germany) or a Viewlux (Perkin-Elmer) and the ratio of the emissions (665 nm/622 nm) was taken as indicator for the amount of phosphorylated substrate. The data were normalised using two sets of (typically 32—) control wells for high—(=enzyme reaction without inhibitor=0% =Minimum inhibition) and low—(=all assay components without enzyme=100%=Maximum inhibition) Bub1 activity. IC50 values were calculated by fitting the normalized inhibition data to a 4-parameter logistic equation (Minimum, Maximum, IC50, Hill; Y=Max+(Min−Max)/(1+(X/IC50)Hill)).

[2] = tested on: HeLa human cervical cancer cell line; assay: Proliferation assay (crystal violet staining); type: cell-based; settings: 96 h, HeLa cells, 4 days incubation, median, read-out: Biological Assay 2: Proliferation assay (HeLa cell line) median IC50
Procedure: Cultivated tumor cells (cells were ordered from ATCC) were plated at a density of 3000 cells/well in a 96-well multititer plate in 200 μL of growth medium supplemented 10% fetal calf serum. After 24 hours, the cells of one plate (zero-point plate) were stained with crystal violet (see below), while the medium of the other plates was replaced by fresh culture medium (200 μL), to which the test substances were added in various concentrations (0 μM, as well as in the range of 0.001-10 μM; the final concentration of the solvent dimethyl sulfoxide was 0.5%). The cells were incubated for 4 days in the presence of test substances. Cell proliferation was determined by staining the cells with crystal violet: the cells were fixed by adding […] of an 11% glutaric aldehyde solution for 15 minutes at room temperature. After three washing cycles of the fixed cells with water, the plates were dried at room temperature. The cells were stained by adding 100 μL/measuring point of a 0.1% crystal violet solution (pH 3.0). After three washing cycles of the stained cells with water, the plates were dried at room temperature. The dye was dissolved by adding 100 μL/measuring point of a 10% acetic acid solution. Absorbtion was determined by photometry at a wavelength of 595 nm. The change of cell number, in percent, was calculated by normalization of the measured values to the absorbtion values of the zero-point plate(=0%) and the absorbtion of the untreated (0 μm) cells(=100%). The IC50 values were determined by means of a 4 parameter fit.

T1 sequence (O43683 704-1085): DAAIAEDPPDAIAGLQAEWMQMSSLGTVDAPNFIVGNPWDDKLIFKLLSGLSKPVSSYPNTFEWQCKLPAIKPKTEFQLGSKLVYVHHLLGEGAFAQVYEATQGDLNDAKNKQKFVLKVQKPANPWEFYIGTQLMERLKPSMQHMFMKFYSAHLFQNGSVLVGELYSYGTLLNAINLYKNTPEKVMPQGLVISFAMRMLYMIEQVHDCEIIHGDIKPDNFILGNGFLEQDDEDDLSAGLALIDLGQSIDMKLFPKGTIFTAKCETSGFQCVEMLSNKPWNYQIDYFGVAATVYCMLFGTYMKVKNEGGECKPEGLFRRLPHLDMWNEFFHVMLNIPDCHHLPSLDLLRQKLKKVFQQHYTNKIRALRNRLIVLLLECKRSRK

| Compound | IC50 [1] | IC50 [2] |
| --- | --- | --- |
| CCOc1cc(F)c(Cn2cc(C)c(-c3ncc(OC)c(Nc4ccncn4)n3)n2)c(F)c1 [Example 2-1-5, 2-[1-(4-ethoxy-2,6-difluorobenzyl)-4-methyl-1H-pyrazol-3-yl]-5-methoxy-N-(pyrimidin-4-yl)pyrimidin-4-amine] | 85 nM | > 10000 nM |
| CCOc1cc(F)c(Cn2nc(-c3nccc(Nc4ccncn4)n3)c(C)c2C2CC2)c(F)c1 [Example 2-1-3, 2-[5-cyclopropyl-1-(4-ethoxy-2,6-difluorobenzyl)-4-methyl-1H-pyrazol-3-yl]-N-(pyrimidin-4-yl)pyrimidin-4-amine] | 17 nM | > 10000 nM |
| CCOc1cc(F)c(Cn2cc(Cl)c(-c3ncc(OC)c(Nc4ccncn4)n3)n2)c(F)c1 [Example 2-1-6, 2-[4-chloro-1-(4-ethoxy-2,6-difluorobenzyl)-1H-pyrazol-3-yl]-5-methoxy-N-(pyrimidin-4-yl)pyrimidin-4-amine] | 100 nM | > 10000 nM |
| COc1cnc(-c2cc(OC)n(Cc3ccccc3F)n2)nc1Nc1ccncn1 [Example 2-1-7, 2-[1-(2-fluorobenzyl)-5-methoxy-1H-pyrazol-3-yl]-5-methoxy-N-(pyrimidin-4-yl)pyrimidin-4-amine] | 3600 nM | > 10000 nM |
| CCOc1cc(F)c(Cn2nc(-c3nccc(Nc4ccncn4)n3)c(Cl)c2C2CC2)c(F)c1 [Example 2-1-1, 2-[4-chloro-5-cyclopropyl-1-(4-ethoxy-2,6-difluorobenzyl)-1H-pyrazol-3-yl]-N-(pyrimidin-4-yl)pyrimidin-4-amine] | 5 nM | > 10000 nM |
| CCOc1cc(F)c(Cn2nc(-c3ncc(OC)c(Nc4ccncn4)n3)c(C)c2C2CC2)c(F)c1 [Example 2-1-2, 2-[5-cyclopropyl-1-(4-ethoxy-2,6-difluorobenzyl)-4-methyl-1H-pyrazol-3-yl]-5-methoxy-N-(pyrimidin-4-yl)pyrimidin-4-amine] | 16 nM | 3500 nM |
| CCOc1cc(F)c(Cn2nc(-c3ncc(OC)c(Nc4ccnnc4)n3)c(C)c2C2CC2)c(F)c1 [Example 2-1-4, N-{2-[5-cyclopropyl-1-(4-ethoxy-2,6-difluorobenzyl)-4-methyl-1H-pyrazol-3-yl]-5-methoxy-pyrimidin-4-yl}pyridazin-4-amine] | 52 nM | > 10000 nM |
